From PubChem BioAssay AID1963863 (Molecular Pharmacology Branch, DTP, NCI, 2024)

Tested on: 931267-113-T-J1-PDC KRAS spheroid with HUVEC/MSC, viability
Assay: Anticancer human tumor 931267-113-T-J1-PDC patient-derived colon adenocarcinoma cell line growth inhibition [KRAS2]
Details: for IC50: curve of first compound; for viability, T/C: stronger effect = lower value
Procedure, shortened: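 KRAS-mutant tumor cells were grown as spheroids with HUVEC endothelial cells and human MSCs as stroma. Targeted agents were tested alone and with KRAS pathway inhibitors. Doses started at or near clinical Cmax, or 10 microM, descending half-log.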

[1] = second compound 0.0316 µM, first compound 0.000316 µM
[2] = second compound 0.0316 µM, first compound 0.001 µM
[3] = second compound 0.0316 µM, first compound 0.00316 µM
[4] = second compound 0.0316 µM, first compound 0.01 µM
[5] = second compound 0.0316 µM, first compound 0.0316 µM
[6] = second compound 0.1 µM, first compound 0.000316 µM
[7] = second compound 0.1 µM, first compound 0.001 µM
[8] = second compound 0.1 µM, first compound 0.00316 µM
[9] = second compound 0.1 µM, first compound 0.01 µM
[10] = second compound 0.1 µM, first compound 0.0316 µM
[11] = second compound 0.316 µM, first compound 0.000316 µM
[12] = second compound 0.316 µM, first compound 0.001 µM
[13] = second compound 0.316 µM, first compound 0.00316 µM
[14] = second compound 0.316 µM, first compound 0.01 µM
[15] = second compound 0.316 µM, first compound 0.0316 µM
[16] = second compound 1 µM, first compound 0.000316 µM
[17] = second compound 1 µM, first compound 0.001 µM
[18] = second compound 1 µM, first compound 0.00316 µM
[19] = second compound 1 µM, first compound 0.01 µM
[20] = second compound 1 µM, first compound 0.0316 µM
[21] = second compound 3.16 µM, first compound 0.000316 µM
[22] = second compound 3.16 µM, first compound 0.001 µM
[23] = second compound 3.16 µM, first compound 0.00316 µM
[24] = second compound 3.16 µM, first compound 0.01 µM
[25] = second compound 3.16 µM, first compound 0.0316 µM
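Also: compound exposure lasted 7 days before the readout.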
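For viability, T/C in this document: 100% = DMSO vehicle control viability.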

Row | Compound | IC50 (second compound 0.0316 µM) | IC50 (second compound 0.1 µM) | IC50 (second compound 0.316 µM) | IC50 (second compound 1 µM) | IC50 (second compound 3.16 µM) | viability, T/C [1] | viability, T/C [2] | viability, T/C [3] | viability, T/C [4] | viability, T/C [5] | viability, T/C [6] | viability, T/C [7] | viability, T/C [8] | viability, T/C [9] | viability, T/C [10] | viability, T/C [11] | viability, T/C [12] | viability, T/C [13] | viability, T/C [14] | viability, T/C [15] | other results
1 | CC(=O)Nc1cccc(-n2c(=O)n(C3CC3)c(=O)c3c(Nc4ccc(I)cc4F)n(C)c(=O)c(C)c32)c1 + C=CC(=O)N1CCN(c2nc(OCC3CCCN3C)nc3c2CCN(c2cccc4cccc(C)c24)C3)CC1CC#N | 6.25 nM | 11.9 nM | 4.45 nM | 1.48 nM | < 0.1 nM | 78% | 69.3% | 54.7% | 60.3% | 13.2% | 82.4% | 64.2% | 72.6% | 59.5% | 8.65% | 83% | 54.9% | 53.8% | 42.7% | 9.24% | viability, T/C (second compound 0.0316 µM, first compound 0.0001 µM): 98.9%; viability, T/C (second compound 0.1 µM, first compound 0.0001 µM): 83%; viability, T/C (second compound 0.316 µM, first compound 0.0001 µM): 69.7%; viability, T/C (second compound 1 µM, first compound 0.0001 µM): 74.7%; viability, T/C [16]: 59.8%; viability, T/C [17]: 45.9%; viability, T/C [18]: 52.9%; viability, T/C [19]: 28.2%; viability, T/C [20]: 9.56%; viability, T/C (second compound 3.16 µM, first compound 0.0001 µM): 0.22%; viability, T/C [21]: 0.24%; viability, T/C [22]: 0.28%; viability, T/C [23]: 0.24%; viability, T/C [24]: 0.21%; viability, T/C [25]: 0.25%
2 | CN(C)C/C=C/C(=O)Nc1cc2c(Nc3ccc(F)c(Cl)c3)ncnc2cc1O[C@H]1CCOC1 + C=CC(=O)N1CCN(c2nc(OCC3CCCN3C)nc3c2CCN(c2cccc4cccc(C)c24)C3)CC1CC#N | > 100 nM | > 100 nM | > 100 nM | > 100 nM | < 0.316 nM | 82.1% | 86.9% | 98.2% | 68.6% | 78.3% | 89.2% | 98% | 65.7% | 62.1% | 65.9% | 77.6% | 70.7% | 69.3% | 62.2% | 66.2% | viability, T/C (second compound 0.0316 µM, first compound 0.1 µM): 75.8%; viability, T/C (second compound 0.1 µM, first compound 0.1 µM): 64.1%; viability, T/C (second compound 0.316 µM, first compound 0.1 µM): 70.7%; viability, T/C [16]: 59.1%; viability, T/C [17]: 72.6%; viability, T/C [18]: 70%; viability, T/C [19]: 72.1%; viability, T/C [20]: 53.1%; viability, T/C (second compound 1 µM, first compound 0.1 µM): 59.6%; viability, T/C [21]: 0.31%; viability, T/C [22]: 0.19%; viability, T/C [23]: 0.24%; viability, T/C [24]: 0.2%; viability, T/C [25]: 0.21%; viability, T/C (second compound 3.16 µM, first compound 0.1 µM): 0.47%
